Assay results published in the supplement of paper PMC6580486.

Tests used:
PCB490-3 = tested on: PCB490-3 (human epithelioid sarcoma primary culture)
Procedure: (§1)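 Roche open-access kinase inhibitor screen (223 compounds) on human epithelioid sarcoma primary cultures from three spatially distinct regions of tumor PCB490. 384-well plates, 72 h, CellTiter-Glo viability; IC50 by Hill curve fit. 100000 nM = no IC50 reached. Compound ids carry a plate-well prefix, which is stripped.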

PCB490-4 = tested on: PCB490-4 (human epithelioid sarcoma primary culture)
Procedure: as §1

PCB490-5 = tested on: PCB490-5 (human epithelioid sarcoma primary culture)
Procedure: as §1

With `Nc1c(C(=O)c2cccc(CCS(N)(=O)=O)c2)cnn1-c1ccc(F)cc1` the IC50 cell viability (PCB490-3) was over 100 µM, the IC50 cell viability (PCB490-4) was over 100 µM and the IC50 cell viability (PCB490-5) was over 100 µM.
`COc1cc[nH]c1/C=C1\C(=O)Nc2ccc(F)c(C#C[C@@H](O)[C@@H](N)[C@@H](C)O)c21` gave an IC50 cell viability (PCB490-3) of over 100 µM, an IC50 cell viability (PCB490-4) of 4.44 µM and an IC50 cell viability (PCB490-5) of 2.07 µM.
Work on `CC(=O)N[C@@H](Cc1ccc(OP(=O)(O)O)cc1)C(=O)N[C@H]1CCC(=O)N2CCC[C@@H](C(=O)NCc3cccc4ccccc34)N2C1=O` yielded an IC50 cell viability (PCB490-3) of over 100 µM, an IC50 cell viability (PCB490-4) of over 100 µM and an IC50 cell viability (PCB490-5) of over 100 µM.
For `Cn1cc(C2=C(c3ccccc3C(F)(F)F)C(=O)NC2=O)c2ccccc21`, the IC50 cell viability (PCB490-3) was over 100 µM, the IC50 cell viability (PCB490-4) was over 100 µM and the IC50 cell viability (PCB490-5) was over 100 µM.
`Cn1cc(C2=C(c3cn(C)c4ncccc34)C(=O)NC2=O)c2ccccc21` gave an IC50 cell viability (PCB490-3) of over 100 µM, an IC50 cell viability (PCB490-4) of over 100 µM and an IC50 cell viability (PCB490-5) of over 100 µM.
Work on `CN1CCN(CCc2cccc(C(=O)c3cnn(-c4ccc(F)cc4)c3N)c2)CC1` yielded an IC50 cell viability (PCB490-3) of over 100 µM, an IC50 cell viability (PCB490-4) of over 100 µM and an IC50 cell viability (PCB490-5) of over 100 µM.
Compound `CS(=O)(=O)N1CCC(n2c(=O)c(Oc3ccc(F)cc3F)cc3cnc(NC4CCOCC4)nc32)CC1` has an IC50 cell viability (PCB490-3) of over 100 µM, an IC50 cell viability (PCB490-4) of over 100 µM and an IC50 cell viability (PCB490-5) of over 100 µM.
`Cc1[nH]nc2c1N=C(c1ccccc1F)c1cc(C#N)ccc1N2` showed an IC50 cell viability (PCB490-3) of over 100 µM, an IC50 cell viability (PCB490-4) of over 100 µM and an IC50 cell viability (PCB490-5) of over 100 µM.
`COc1cccc(C2=C(c3cn(C)c4c(C)cccc34)C(=O)NC2=O)c1` was tested, and the IC50 cell viability (PCB490-3) was over 100 µM, the IC50 cell viability (PCB490-4) was over 100 µM and the IC50 cell viability (PCB490-5) was over 100 µM.
Compound `Cc1ccccc1-n1ncc(C(=O)c2ccccc2)c1N` has an IC50 cell viability (PCB490-3) of over 100 µM, an IC50 cell viability (PCB490-4) of over 100 µM and an IC50 cell viability (PCB490-5) of over 100 µM.
`O=c1c(Oc2ccc(F)cc2F)cc2cnc(NC3CCOCC3)nc2n1CCCO` gave an IC50 cell viability (PCB490-3) of over 100 µM, an IC50 cell viability (PCB490-4) of over 100 µM and an IC50 cell viability (PCB490-5) of over 100 µM.
`COc1cccc(C(=O)c2sc(Nc3ccc(N4CCN(C(C)C)CC4)cc3)nc2N)c1` was tested, and the IC50 cell viability (PCB490-3) was over 100 µM, the IC50 cell viability (PCB490-4) was over 100 µM and the IC50 cell viability (PCB490-5) was over 100 µM.
Work on `Cn1c(=O)c(Oc2ccc(F)cc2F)cc2cnc(N[C@H]3CCOC3)nc21` yielded an IC50 cell viability (PCB490-3) of over 100 µM, an IC50 cell viability (PCB490-4) of over 100 µM and an IC50 cell viability (PCB490-5) of over 100 µM.
For `NC1=NC(=O)/C(=C/c2ccc3ncccc3c2)S1`, the IC50 cell viability (PCB490-3) was over 100 µM, the IC50 cell viability (PCB490-4) was over 100 µM and the IC50 cell viability (PCB490-5) was over 100 µM.
`O=C1Nc2ccc(F)cc2/C1=C/c1ccc[nH]1` showed an IC50 cell viability (PCB490-3) of over 100 µM, an IC50 cell viability (PCB490-4) of over 100 µM and an IC50 cell viability (PCB490-5) of over 100 µM.
With `COc1cccc(C2=C(c3cn(C)c4cccc(OC)c34)C(=O)NC2=O)c1` the IC50 cell viability (PCB490-3) was over 100 µM, the IC50 cell viability (PCB490-4) was over 100 µM and the IC50 cell viability (PCB490-5) was over 100 µM.
In the case of `Nc1[nH]nc2nc(-c3cccs3)cc(C(F)(F)F)c12`, the IC50 cell viability (PCB490-3) is reported as over 100 µM, the IC50 cell viability (PCB490-4) is reported as over 100 µM and the IC50 cell viability (PCB490-5) is reported as over 100 µM.
Compound `CN1C[C@@H]2Cn3c(c(C4=C(c5cn(C)c6ccccc56)C(=O)NC4=O)c4ccccc43)C[C@H]2C1` has an IC50 cell viability (PCB490-3) of over 100 µM, an IC50 cell viability (PCB490-4) of over 100 µM and an IC50 cell viability (PCB490-5) of over 100 µM.
Compound `Nc1c(C(=O)c2cccc(C#CCO)c2)cnn1-c1ccc(F)cc1` has an IC50 cell viability (PCB490-3) of over 100 µM, an IC50 cell viability (PCB490-4) of over 100 µM and an IC50 cell viability (PCB490-5) of over 100 µM.
`Cn1cc(C2=C(c3cn(C)c4ccc(N)cc34)C(=O)NC2=O)c2ccccc21` gave an IC50 cell viability (PCB490-3) of over 100 µM, an IC50 cell viability (PCB490-4) of over 100 µM and an IC50 cell viability (PCB490-5) of over 100 µM.
With `Cn1c(=O)c(Oc2ccc(F)cc2F)cc2cnc(NCCS(C)(=O)=O)nc21` the IC50 cell viability (PCB490-3) was over 100 µM, the IC50 cell viability (PCB490-4) was over 100 µM and the IC50 cell viability (PCB490-5) was over 100 µM.
`O=C1NC(=N[C@@H](CO)c2ccccc2)S/C1=C\c1ccc2ncccc2c1` was tested, and the IC50 cell viability (PCB490-3) was over 100 µM, the IC50 cell viability (PCB490-4) was over 100 µM and the IC50 cell viability (PCB490-5) was over 100 µM.
With `Nc1c(C(=O)c2cccc(C(O)CO)c2)cnn1-c1ccc(F)cc1` (stereo not given) the IC50 cell viability (PCB490-3) was over 100 µM, the IC50 cell viability (PCB490-4) was over 100 µM and the IC50 cell viability (PCB490-5) was over 100 µM.
Compound `Cn1c(=O)c(Sc2ccccc2F)cc2cnc(NC3CCOCC3)nc21` has an IC50 cell viability (PCB490-3) of over 100 µM, an IC50 cell viability (PCB490-4) of over 100 µM and an IC50 cell viability (PCB490-5) of over 100 µM.
With `C/C(=C1/SC(=NCc2cccs2)NC1=O)c1ccc2ncccc2c1` the IC50 cell viability (PCB490-3) was over 100 µM, the IC50 cell viability (PCB490-4) was over 100 µM and the IC50 cell viability (PCB490-5) was over 100 µM.
Compound `Cn1c(=O)c(Cc2ccc(F)cc2F)cc2cnc(NC3CCOCC3)nc21` has an IC50 cell viability (PCB490-3) of over 100 µM, an IC50 cell viability (PCB490-4) of over 100 µM and an IC50 cell viability (PCB490-5) of over 100 µM.
Work on `Cn1cc(C2=C(c3cn(C)c4c([N+](=O)[O-])cccc34)C(=O)NC2=O)c2ccccc21` yielded an IC50 cell viability (PCB490-3) of over 100 µM, an IC50 cell viability (PCB490-4) of over 100 µM and an IC50 cell viability (PCB490-5) of over 100 µM.
With `Cc1ccc(C)c(C2=C(c3cn(C)c4ccccc34)C(=O)NC2=O)c1` the IC50 cell viability (PCB490-3) was over 100 µM, the IC50 cell viability (PCB490-4) was over 100 µM and the IC50 cell viability (PCB490-5) was over 100 µM.
For `Cn1cc(C2=C(c3cn(C)c4cc(Cl)ccc34)C(=O)NC2=O)c2ccccc21`, the IC50 cell viability (PCB490-3) was over 100 µM, the IC50 cell viability (PCB490-4) was over 100 µM and the IC50 cell viability (PCB490-5) was over 100 µM.
In the case of `CCCn1cc(C2=C(c3cn(C)c4ccccc34)C(=O)NC2=O)c2ccccc21`, the IC50 cell viability (PCB490-3) is reported as over 100 µM, the IC50 cell viability (PCB490-4) is reported as over 100 µM and the IC50 cell viability (PCB490-5) is reported as over 100 µM.
